Experimental data: ChEMBL document CHEMBL1201862, “PubChem BioAssay data set” (2004)
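Five concentrations, 48 hours, 96-well plates. Abbreviation: GI50, concentration required for 50% inhibition of growth.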 Calls of active or inactive are those of the source. No stated cut-off is given here; in the data, active = GI50 up to about 1.1 µM and inactive = higher.

Tests used:
Assay in all cases: NCI tumour cell line growth inhibition, 48 h
KM12 = test system: KM12
OVCAR-3 = test system: OVCAR-3
MOLT-4 = test system: MOLT-4
HL-60 = test system: HL-60
OVCAR-4 = test system: OVCAR-4
OVCAR-5 = test system: OVCAR-5
SK-MEL-5 = test system: SK-MEL-5
SK-MEL-28 = test system: SK-MEL-28
COLO 205 = test system: COLO 205
NCI/ADR-RES = test system: NCI/ADR-RES
MCF7 = test system: MCF7
ACHN = test system: ACHN
A549 = test system: A549
Hs-578T = test system: Hs-578T
EKVX = test system: EKVX
HT-29 = test system: HT-29
A498 = test system: A498
SN12C = test system: SN12C
HOP-92 = test system: HOP-92
HCC 2998 = test system: HCC 2998

| Compound | GI50 (KM12) | GI50 (OVCAR-3) | GI50 (MOLT-4) | GI50 (HL-60) | GI50 (OVCAR-4) | GI50 (OVCAR-5) | GI50 (SK-MEL-5) | GI50 (SK-MEL-28) | GI50 (COLO 205) | GI50 (NCI/ADR-RES) | GI50 (MCF7) | GI50 (ACHN) | GI50 (A549) | GI50 (Hs-578T) | GI50 (EKVX) | GI50 (HT-29) | GI50 (A498) | GI50 (SN12C) | GI50 (HOP-92) | GI50 (HCC 2998) |
| --- | --- | --- | --- | --- | --- | --- | --- | --- | --- | --- | --- | --- | --- | --- | --- | --- | --- | --- | --- | --- |
| COc1cc(CCN)c(OC)c(OC)c1 | > 100 µM (inactive) | > 100 µM (inactive) | > 100 µM (inactive) | 40.4 µM (inactive) | > 100 µM (inactive) | > 100 µM (inactive) | 23.6 µM (inactive) | > 100 µM (inactive) | > 100 µM (inactive) | > 100 µM (inactive) | 42.3 µM (inactive) | > 100 µM (inactive) | > 100 µM (inactive) | > 100 µM (inactive) | > 100 µM (inactive) | > 100 µM (inactive) | > 100 µM (inactive) | > 100 µM (inactive) | 62.4 µM (inactive) | – |
| CC1(C)N=C(c2ccccc2)SC12S[C@@H]1CCCC[C@H]1S2 | > 100 µM (inactive) | > 100 µM (inactive) | 63.8 µM (inactive) | > 100 µM (inactive) | > 100 µM (inactive) | > 100 µM (inactive) | 17.4 µM (inactive) | > 100 µM (inactive) | > 100 µM (inactive) | > 100 µM (inactive) | 64.4 µM (inactive) | > 100 µM (inactive) | > 100 µM (inactive) | 4.57 µM (inactive) | > 100 µM (inactive) | 94.6 µM (inactive) | 17.9 µM (inactive) | > 100 µM (inactive) | > 100 µM (inactive) | – |
| Cc1cccc(C)c1NC(=O)/C(CC(=O)CC(c1ccccc1)c1c(O)c2ccccc2oc1=O)=N/O (stereo not given) | > 100 µM (inactive) | > 100 µM (inactive) | > 100 µM (inactive) | > 100 µM (inactive) | > 100 µM (inactive) | > 100 µM (inactive) | > 100 µM (inactive) | > 100 µM (inactive) | > 100 µM (inactive) | > 100 µM (inactive) | > 100 µM (inactive) | > 100 µM (inactive) | > 100 µM (inactive) | > 100 µM (inactive) | > 100 µM (inactive) | > 100 µM (inactive) | – | > 100 µM (inactive) | 31.3 µM (inactive) | > 100 µM (inactive) |
| CC(=O)OCOC(=O)CN(CC(=O)OCOC(C)=O)Cc1cc2c(cc1OC(C)=O)Oc1cc(OC(C)=O)c(CN(CC(=O)OCOC(C)=O)CC(=O)OCOC(C)=O)cc1C21OC(=O)c2ccccc21 | – | 0.92 µM (active) | 0.241 µM (active) | 0.01 µM (active) | 0.998 µM (active) | 2.94 µM (inactive) | 0.953 µM (active) | 0.484 µM (active) | 0.594 µM (active) | 11 µM (inactive) | 0.342 µM (active) | 1.38 µM (inactive) | 0.953 µM (active) | 0.345 µM (active) | 2.52 µM (inactive) | 0.483 µM (active) | 1.25 µM (inactive) | 1.13 µM (inactive) | 1.05 µM (active) | – |
| CC(C)=Cc1cc(C)c2c(O)cc(C)c3c2c1C(C)=C(O)C3=O | 20.5 µM (inactive) | 20.6 µM (inactive) | 25.8 µM (inactive) | 29.9 µM (inactive) | – | 28.7 µM (inactive) | 17.1 µM (inactive) | – | 13 µM (inactive) | 30.1 µM (inactive) | 24.3 µM (inactive) | 25.5 µM (inactive) | 24.8 µM (inactive) | 27 µM (inactive) | – | 14.9 µM (inactive) | 22.9 µM (inactive) | 32.9 µM (inactive) | 7.85 µM (inactive) | – |
| CCOC(=O)C(NC(=O)c1ccccc1)(Nc1ccc(S(=O)(=O)Nc2ncccn2)cc1)C(F)(F)F (stereo not given) | > 100 µM (inactive) | > 100 µM (inactive) | > 100 µM (inactive) | > 100 µM (inactive) | > 100 µM (inactive) | > 100 µM (inactive) | > 100 µM (inactive) | > 100 µM (inactive) | > 100 µM (inactive) | > 100 µM (inactive) | > 100 µM (inactive) | > 100 µM (inactive) | > 100 µM (inactive) | > 100 µM (inactive) | > 100 µM (inactive) | > 100 µM (inactive) | – | > 100 µM (inactive) | > 100 µM (inactive) | > 100 µM (inactive) |
| C=CCCC(On1c(-c2ccc(Cl)cc2)csc1=S)c1ccccc1 (stereo not given) | 26.5 µM (inactive) | 23 µM (inactive) | 7.62 µM (inactive) | 7.18 µM (inactive) | 38.5 µM (inactive) | > 100 µM (inactive) | 14.9 µM (inactive) | 85.3 µM (inactive) | 22.5 µM (inactive) | 13.7 µM (inactive) | 16.7 µM (inactive) | 83.6 µM (inactive) | 31.2 µM (inactive) | 34.4 µM (inactive) | 19.9 µM (inactive) | 7.59 µM (inactive) | > 100 µM (inactive) | 47.3 µM (inactive) | 40.6 µM (inactive) | – |
| CNc1cc(N)ccc1C(=O)N1CCC[C@H]1CO | > 100 µM (inactive) | > 100 µM (inactive) | > 100 µM (inactive) | – | – | > 100 µM (inactive) | – | > 100 µM (inactive) | – | > 100 µM (inactive) | > 100 µM (inactive) | > 100 µM (inactive) | > 100 µM (inactive) | > 100 µM (inactive) | > 100 µM (inactive) | > 100 µM (inactive) | > 100 µM (inactive) | > 100 µM (inactive) | > 100 µM (inactive) | – |
| CC12CCCC3(CC(=O)C(C)(C)C3C(=O)C1)C2 (stereo not given) | > 100 µM (inactive) | > 100 µM (inactive) | > 100 µM (inactive) | > 100 µM (inactive) | > 100 µM (inactive) | > 100 µM (inactive) | > 100 µM (inactive) | > 100 µM (inactive) | > 100 µM (inactive) | > 100 µM (inactive) | > 100 µM (inactive) | > 100 µM (inactive) | > 100 µM (inactive) | > 100 µM (inactive) | > 100 µM (inactive) | > 100 µM (inactive) | – | > 100 µM (inactive) | > 100 µM (inactive) | – |
| NC(=S)Nc1c(S(N)(=O)=O)cc(S(N)(=O)=O)c(Cl)c1Cl | > 100 µM (inactive) | > 100 µM (inactive) | > 100 µM (inactive) | > 100 µM (inactive) | > 100 µM (inactive) | > 100 µM (inactive) | > 100 µM (inactive) | > 100 µM (inactive) | > 100 µM (inactive) | > 100 µM (inactive) | > 100 µM (inactive) | – | > 100 µM (inactive) | > 100 µM (inactive) | > 100 µM (inactive) | > 100 µM (inactive) | – | > 100 µM (inactive) | > 100 µM (inactive) | – |
| Cc1ccc(C(=O)C#Cc2cn(C3CC(O)C(CO)O3)c(=O)[nH]c2=O)cc1 (stereo not given) | > 100 µM (inactive) | 26.2 µM (inactive) | – | – | 95.9 µM (inactive) | – | > 100 µM (inactive) | > 100 µM (inactive) | 38.6 µM (inactive) | > 100 µM (inactive) | 47.6 µM (inactive) | > 100 µM (inactive) | > 100 µM (inactive) | 95.1 µM (inactive) | > 100 µM (inactive) | > 100 µM (inactive) | – | > 100 µM (inactive) | 32.6 µM (inactive) | > 100 µM (inactive) |
